Measured values from article PMC2099433, “The binding site for neohesperidin dihydrochalcone at the human sweet taste receptor” (BMC Structural Biology, 2007).
Residue numbers refer to the chain shown, from its start. Where a SMILES comes first, the peptide text is derived from it.

Experiments:
[1] = target: T1, hTAS1R2 + hTAS1R3 C801L^7.39 (Homo sapiens, UniProt Q7RTX0+Q8TE23, C801L); experiment: Calcium response (FLIPR), hTAS1R3 mutant coexpressed with hTAS1R2; assay type: cell-based; conditions: for receptor activation: mutant C801L^7.39; for EC50: variant C801L^7.39, n.f. = no response to any tested sweetener
T1 construct: expressed in transfected cells; host or cells: HEK293T cells stably expressing G16Gust44
T1 sequence (Q7RTX0 21-852 C801L): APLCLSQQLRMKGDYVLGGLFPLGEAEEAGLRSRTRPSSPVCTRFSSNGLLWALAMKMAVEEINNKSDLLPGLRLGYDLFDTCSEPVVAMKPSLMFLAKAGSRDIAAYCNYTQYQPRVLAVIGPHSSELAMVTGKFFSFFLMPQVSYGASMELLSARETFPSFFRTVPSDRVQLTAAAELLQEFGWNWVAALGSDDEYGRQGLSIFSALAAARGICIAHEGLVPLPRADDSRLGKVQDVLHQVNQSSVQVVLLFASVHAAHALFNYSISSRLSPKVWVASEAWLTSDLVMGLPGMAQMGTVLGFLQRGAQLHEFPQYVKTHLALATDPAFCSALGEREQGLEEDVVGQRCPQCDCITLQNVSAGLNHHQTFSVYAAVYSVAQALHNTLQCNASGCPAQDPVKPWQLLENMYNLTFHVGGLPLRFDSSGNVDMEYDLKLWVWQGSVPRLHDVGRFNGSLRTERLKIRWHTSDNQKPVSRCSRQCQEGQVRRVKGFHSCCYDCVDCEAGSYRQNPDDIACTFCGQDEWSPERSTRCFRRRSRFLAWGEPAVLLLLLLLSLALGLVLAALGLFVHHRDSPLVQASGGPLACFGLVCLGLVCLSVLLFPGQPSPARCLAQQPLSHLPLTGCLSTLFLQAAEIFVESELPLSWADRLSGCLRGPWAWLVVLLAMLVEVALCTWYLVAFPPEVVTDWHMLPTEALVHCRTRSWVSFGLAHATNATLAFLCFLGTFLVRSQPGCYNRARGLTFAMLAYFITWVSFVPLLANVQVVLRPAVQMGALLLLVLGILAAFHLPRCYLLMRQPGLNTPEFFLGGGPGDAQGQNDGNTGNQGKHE
T1 sequence (Q8TE23 20-839): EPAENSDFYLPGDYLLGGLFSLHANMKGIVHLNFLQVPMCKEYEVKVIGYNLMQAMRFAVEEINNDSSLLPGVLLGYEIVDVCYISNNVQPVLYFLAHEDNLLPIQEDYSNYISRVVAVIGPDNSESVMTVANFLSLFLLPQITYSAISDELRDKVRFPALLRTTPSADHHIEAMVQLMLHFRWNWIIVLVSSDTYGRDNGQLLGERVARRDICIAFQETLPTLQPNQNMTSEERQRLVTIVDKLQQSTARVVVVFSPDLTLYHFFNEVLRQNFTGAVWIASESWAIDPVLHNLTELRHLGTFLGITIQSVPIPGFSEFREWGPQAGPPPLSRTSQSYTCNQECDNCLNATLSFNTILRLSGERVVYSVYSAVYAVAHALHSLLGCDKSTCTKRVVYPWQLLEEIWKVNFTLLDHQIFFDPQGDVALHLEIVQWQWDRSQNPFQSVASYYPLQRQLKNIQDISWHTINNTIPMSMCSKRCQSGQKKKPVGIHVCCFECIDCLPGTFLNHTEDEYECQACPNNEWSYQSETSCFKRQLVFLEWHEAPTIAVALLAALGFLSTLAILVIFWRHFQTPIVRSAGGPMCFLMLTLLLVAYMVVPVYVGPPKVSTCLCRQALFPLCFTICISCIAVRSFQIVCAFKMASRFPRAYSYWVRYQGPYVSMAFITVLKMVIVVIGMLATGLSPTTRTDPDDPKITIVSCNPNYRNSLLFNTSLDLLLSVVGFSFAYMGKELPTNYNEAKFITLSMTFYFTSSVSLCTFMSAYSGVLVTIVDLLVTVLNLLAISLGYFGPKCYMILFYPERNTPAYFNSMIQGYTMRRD
Method: (§1) The cDNAs for TAS1Rs tagged at the C-terminus with the herpes simplex virus glycoprotein D (HSV) were transiently transfected into HEK293T cells stably expressing the chimeric G-protein subunit G16Gust44 [44] using Lipofectamine 2000 (Invitrogen, Carlsbad, CA) according to the manufacturer's protocol. 3–4 hours after transfection, DMEM was replaced by low-glucose DMEM supplemented with GlutaMAX and 10% dialyzed FBS (Invitrogen, Carlsbad, CA). 24 h post transfection, cells were loaded for 1 h with the calcium sensitive dye Fluo4-AM (2 μg/ml in DMEM, Molecular Probes, Carlsbad, CA). […] We monitored calcium mobilization following receptor stimulation with sweet tastants by an automated fluorometric imaging plate reader (FLIPR, Molecular Devices, Sunnyvale, CA). Compounds used as stimuli (Sigma-Aldrich, St. Louis, MO; Merck, Whitehouse Station, NJ) were dissolved in C1 solution. All data were collected from at least three independent experiments carried out in duplicate. The obtained calcium signals were corrected for the response of mock transfected cells and normalized to the fluorescence of cells prior to the application of the stimulus using ΔF/F = (F-F0)/F0.

[2] = target: T2, hTAS1R2 + hTAS1R3 W775A^6.48 (Homo sapiens, UniProt Q7RTX0+Q8TE23, W775A); experiment: as above; assay type: cell-based; conditions: for EC50 / Emax: variant W775A^6.48; for EC50: (>) EC50 not calculable because saturation is not reached; for Emax: read-out: maximal signal (% of wt)
T2 construct: expressed in transfected cells; host or cells: HEK293T cells stably expressing G16Gust44
T2 sequence (Q8TE23 20-839): T1 sequence (Q8TE23 20-839)
T2 sequence (Q7RTX0 21-852 W775A): T1 sequence (Q7RTX0 21-852 C801L) with W755A, L781C
Method: as §1

COc1ccc(CCC(=O)c2c(O)cc(O[C@@H]3O[C@H](CO)[C@@H](O)[C@H](O)[C@H]3O[C@@H]3O[C@@H](C)[C@H](O)[C@@H](O)[C@H]3O)cc2O)cc1O [NHDC, neohesperidin dihydrochalcone]
receptor activation [1]: could not be activated | EC50 [1]: n.f. | EC50 [2]: > 3000 µM | Emax [2]: 30 ± 41%

CC1=CC(=O)NS(=O)(=O)O1 [acesulfame K]
receptor activation [1]: could not be activated

COC(=O)[C@H](Cc1ccccc1)NC(=O)[C@@H](N)CC(=O)O [aspartame] (HELM PEPTIDE1{D.F.[CO[*:1]]}$$$$V2.0)
receptor activation [1]: could not be activated | EC50 [1]: n.f. | EC50 [2]: 1900 ± 200 µM | Emax [2]: 20 ± 30%

O=S(=O)(O)NC1CCCCC1 [cyclamate]
receptor activation [1]: could not be activated | receptor activation ([2]; mutant W775A^6.48, any tested concentration): could not be activated at any tested concentration
